{"source": "patent US20070231375A1", "about": "“Liposome combination and the use thereof” (Taipei Medical University, priority 2006, published 2007)", "key": {"CL1-0 cells": {"system": "CL1-0 cells", "test": "MTT Assay-2 (CL1-0)", "type": "cell-based", "conditions": "0.5 μg/ml Doxorubicin; no light"}, "A431 cells": {"system": "A431 cells", "test": "MTT Assay-2 (A431)", "type": "cell-based", "conditions": "0.5 μg/ml Doxorubicin, no light", "experimental": "A431 or CL1-5 cells (approx. 5000 cells) were seeded in each well of a 96-well plate and incubated in medium. After 24 hr of incubation, Doxorubicin (FD), Liposomal-Doxorubicin (LD) and Liposomal-Doxorubicin-Hematoporphyrin (LDH) was added into each well and drug concentration was set at 0.5 μg/ml Doxorubicin and 0.3 μg/ml Hp, After 2 hr, the cells of experiment group were illuminated for 10, 20, or 30 J/cm^2, and MTT assay was performed 72 hr later."}}, "data": [{"compound": "COc1cccc2c1C(=O)c1c(O)c3c(c(O)c1C2=O)C[C@@](O)(C(=O)CO)C[C@@H]3O[C@H]1C[C@H](N)[C@H](O)[C@H](C)O1", "note": "[FD, Doxorubicin]", "values": [{"measurement": "toxicity to cell CL1-0 (in words)", "setting": "CL1-0 cells", "value": "has toxicity to cell CL1-0 significantly"}, {"measurement": "toxicity to cell A431 (in words)", "setting": "A431 cells", "value": "has toxicity to cell A431 significantly"}, {"measurement": "activity of mitochondia dehydrogenase (of control group)", "setting": "A431 cells; A431, 0.3 μg/ml Hp, MTT 72 hr", "value": "about 30%"}]}]}
